Data as given in ChEMBL document CHEMBL6153029, “Next-generation cancer therapeutics: PROTACs and the role of heterocyclic warheads in targeting resistance” (Eur J Med Chem, 2025).
pIC50, pKd: −log10 of the molar value. One block for each molecule: values may come before it.

Experiments:
[1] = molecular target: Platelet-derived growth factor receptor beta (Homo sapiens) (UniProt P09619); test: Inhibition of PDGFRbeta (unknown origin) measured for 48 hrs at 10 uM relative to control
[2] = molecular target: T1, Protein cereblon/ALK tyrosine kinase receptor/Nucleophosmin (Homo sapiens, UniProt Q9UM73+P06748+Q96SW2); test: PROTAC activity at CRBN/NPM/ALK in human KARPAS-299 cells incubated for 48 hrs by Western blotting analysis; format: cell-based
[3] = molecular target: T2, Glucose-induced degradation protein 4 homolog/EML4-ALK (Homo sapiens, UniProt Q9UM73+Q9HC35+Q8IVV7); test: PROTAC activity at GID4/EML4-ALK in human NCI-H3122 cells assessed as protein degradation at 1 uM measured for 48 hrs by immunoblot analysis; format: cell-based
[4] = molecular target: T1, Protein cereblon/ALK tyrosine kinase receptor/Nucleophosmin; test: PROTAC activity at CRBN/NPM/ALK in human KARPAS-299 cells assessed as maximal degradation of protein at 1 uM incubated for 48 hrs by Western blotting analysis relative to control; format: cell-based
Target sequence in this assay (P06748 whole entry partner): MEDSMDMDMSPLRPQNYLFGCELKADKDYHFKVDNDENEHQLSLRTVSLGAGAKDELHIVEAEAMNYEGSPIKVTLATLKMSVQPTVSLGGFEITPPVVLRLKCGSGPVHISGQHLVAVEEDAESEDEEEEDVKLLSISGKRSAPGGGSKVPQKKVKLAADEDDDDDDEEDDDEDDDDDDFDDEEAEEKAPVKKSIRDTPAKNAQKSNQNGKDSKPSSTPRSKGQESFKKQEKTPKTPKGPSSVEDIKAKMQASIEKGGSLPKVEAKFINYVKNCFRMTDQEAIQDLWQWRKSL
Target sequence in this assay (Q96SW2 whole entry partner): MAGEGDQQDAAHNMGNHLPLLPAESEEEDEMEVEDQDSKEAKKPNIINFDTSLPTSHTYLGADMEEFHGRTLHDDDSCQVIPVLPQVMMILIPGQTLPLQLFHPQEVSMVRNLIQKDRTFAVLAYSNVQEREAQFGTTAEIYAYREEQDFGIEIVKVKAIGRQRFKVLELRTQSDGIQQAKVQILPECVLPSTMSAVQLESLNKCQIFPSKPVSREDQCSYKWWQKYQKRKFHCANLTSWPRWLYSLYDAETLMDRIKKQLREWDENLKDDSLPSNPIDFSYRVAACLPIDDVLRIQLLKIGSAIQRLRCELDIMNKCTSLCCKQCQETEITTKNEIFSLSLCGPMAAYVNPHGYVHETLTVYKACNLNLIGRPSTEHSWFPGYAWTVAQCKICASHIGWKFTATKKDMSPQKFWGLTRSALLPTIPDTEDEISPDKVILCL
Target sequence in this assay (Q9UM73 19-1620 limits assumed): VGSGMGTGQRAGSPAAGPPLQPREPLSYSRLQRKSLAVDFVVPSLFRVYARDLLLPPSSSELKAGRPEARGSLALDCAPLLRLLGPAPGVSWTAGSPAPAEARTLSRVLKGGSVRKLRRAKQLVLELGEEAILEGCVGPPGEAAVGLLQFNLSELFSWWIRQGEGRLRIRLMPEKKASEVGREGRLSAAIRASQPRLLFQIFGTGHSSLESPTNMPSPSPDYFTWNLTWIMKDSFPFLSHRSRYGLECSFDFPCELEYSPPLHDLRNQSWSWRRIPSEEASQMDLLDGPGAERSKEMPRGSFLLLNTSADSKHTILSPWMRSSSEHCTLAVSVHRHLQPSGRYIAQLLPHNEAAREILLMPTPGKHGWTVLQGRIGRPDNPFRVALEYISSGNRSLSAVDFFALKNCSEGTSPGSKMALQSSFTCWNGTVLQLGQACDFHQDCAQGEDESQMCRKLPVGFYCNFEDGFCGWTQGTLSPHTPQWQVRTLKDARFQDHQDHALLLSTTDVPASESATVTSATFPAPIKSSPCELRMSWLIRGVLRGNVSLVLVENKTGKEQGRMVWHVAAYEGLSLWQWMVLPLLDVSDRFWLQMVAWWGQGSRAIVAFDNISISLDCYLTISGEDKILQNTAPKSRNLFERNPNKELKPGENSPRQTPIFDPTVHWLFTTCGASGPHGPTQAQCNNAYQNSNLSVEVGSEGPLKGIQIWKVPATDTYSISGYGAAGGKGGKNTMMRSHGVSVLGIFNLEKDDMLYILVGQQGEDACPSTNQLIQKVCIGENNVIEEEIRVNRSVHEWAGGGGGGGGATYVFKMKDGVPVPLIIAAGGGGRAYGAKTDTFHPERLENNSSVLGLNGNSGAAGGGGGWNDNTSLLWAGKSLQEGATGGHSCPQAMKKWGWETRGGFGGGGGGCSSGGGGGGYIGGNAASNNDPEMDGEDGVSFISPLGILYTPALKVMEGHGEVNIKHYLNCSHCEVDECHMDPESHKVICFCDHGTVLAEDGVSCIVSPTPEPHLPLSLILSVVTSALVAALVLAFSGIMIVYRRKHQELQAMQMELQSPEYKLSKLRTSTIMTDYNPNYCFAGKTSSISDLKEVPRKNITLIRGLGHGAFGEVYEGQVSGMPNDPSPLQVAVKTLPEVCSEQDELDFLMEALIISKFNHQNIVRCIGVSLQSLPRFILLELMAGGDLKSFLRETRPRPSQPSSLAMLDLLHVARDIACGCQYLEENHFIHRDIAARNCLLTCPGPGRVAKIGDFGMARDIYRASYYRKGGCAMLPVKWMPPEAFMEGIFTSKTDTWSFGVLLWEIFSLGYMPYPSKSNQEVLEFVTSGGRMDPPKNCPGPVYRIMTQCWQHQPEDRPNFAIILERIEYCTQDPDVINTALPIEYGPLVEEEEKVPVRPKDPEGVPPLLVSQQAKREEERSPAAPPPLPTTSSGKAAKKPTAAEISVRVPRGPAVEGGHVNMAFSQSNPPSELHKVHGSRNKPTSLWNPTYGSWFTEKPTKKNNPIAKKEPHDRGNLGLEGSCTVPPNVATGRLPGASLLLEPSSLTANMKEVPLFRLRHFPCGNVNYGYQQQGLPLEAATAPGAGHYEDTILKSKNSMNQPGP

[5] = molecular target: T2, Glucose-induced degradation protein 4 homolog/EML4-ALK; test: PROTAC activity at GID4/EML4-ALK in human NCI-H3122 cells assessed as maximal protein degradation at 1 uM measured for 48 hrs by immunoblot analysis relative to control; format: cell-based
Target sequence in this assay (Q8IVV7 whole entry partner): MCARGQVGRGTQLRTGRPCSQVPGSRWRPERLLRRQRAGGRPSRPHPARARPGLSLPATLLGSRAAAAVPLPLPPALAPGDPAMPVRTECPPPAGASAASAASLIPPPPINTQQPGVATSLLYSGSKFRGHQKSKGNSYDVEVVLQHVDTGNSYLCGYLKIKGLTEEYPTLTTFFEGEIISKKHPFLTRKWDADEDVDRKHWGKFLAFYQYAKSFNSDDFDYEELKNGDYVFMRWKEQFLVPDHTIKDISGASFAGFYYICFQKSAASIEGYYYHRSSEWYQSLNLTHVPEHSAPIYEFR
Target sequence in this assay (Q9HC35 whole entry partner): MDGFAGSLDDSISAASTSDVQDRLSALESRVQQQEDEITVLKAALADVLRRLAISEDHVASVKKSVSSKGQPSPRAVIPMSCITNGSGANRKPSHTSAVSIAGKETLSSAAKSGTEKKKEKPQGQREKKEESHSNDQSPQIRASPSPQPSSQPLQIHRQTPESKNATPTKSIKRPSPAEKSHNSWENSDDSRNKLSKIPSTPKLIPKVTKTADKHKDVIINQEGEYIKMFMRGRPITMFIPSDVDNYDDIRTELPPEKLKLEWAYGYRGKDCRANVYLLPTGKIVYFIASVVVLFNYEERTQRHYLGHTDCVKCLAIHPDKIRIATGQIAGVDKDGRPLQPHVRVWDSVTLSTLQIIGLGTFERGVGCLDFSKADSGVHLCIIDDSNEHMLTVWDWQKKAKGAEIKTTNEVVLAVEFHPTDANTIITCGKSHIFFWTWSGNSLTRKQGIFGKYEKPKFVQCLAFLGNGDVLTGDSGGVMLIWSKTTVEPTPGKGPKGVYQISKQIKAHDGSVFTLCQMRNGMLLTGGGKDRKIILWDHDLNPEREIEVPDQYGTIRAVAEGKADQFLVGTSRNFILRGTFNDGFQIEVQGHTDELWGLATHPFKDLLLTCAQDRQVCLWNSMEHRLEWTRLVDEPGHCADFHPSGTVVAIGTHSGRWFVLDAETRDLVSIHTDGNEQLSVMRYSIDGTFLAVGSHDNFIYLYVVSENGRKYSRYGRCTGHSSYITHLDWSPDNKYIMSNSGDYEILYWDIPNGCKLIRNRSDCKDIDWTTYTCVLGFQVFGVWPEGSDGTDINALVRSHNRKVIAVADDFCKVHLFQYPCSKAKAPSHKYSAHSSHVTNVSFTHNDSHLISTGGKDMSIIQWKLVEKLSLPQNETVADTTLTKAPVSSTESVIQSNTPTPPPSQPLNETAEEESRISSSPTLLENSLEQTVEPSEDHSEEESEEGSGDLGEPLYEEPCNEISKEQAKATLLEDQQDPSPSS
Target sequence in this assay (Q9UM73 19-1620 limits assumed): as the sequence (Q9UM73 19-1620 limits assumed) above

LNCaP [6] = test: Antiproliferative activity against human LNCAP cells assessed as reduction in cell viability incubated for 24 hrs by MTT assay; format: functional, cell-based
[7] = molecular target: Protein cereblon/Androgen receptor (Homo sapiens) (UniProt P10275+Q96SW2); test: PROTAC activity at AR/CRBN in human LNCaP cells assessed as protein degradation measured by measuring maximal degradation at 5 uM incubated for 24 hrs by Western blot analysis relative to control; format: cell-based
MCF7 = test: Antiproliferative activity against human MCF7 cells
T47D = test: Antiproliferative activity against human T47D cells
CWR22R = test: Antiproliferative activity against human 22Rv1 cells; format: functional, cell-based
[8] = molecular target: T3, Bromodomain-containing protein 4 (Homo sapiens, UniProt O60885); test: Binding affinity to BRD4 (unknown origin) assessed as dissociation constant
MOLM-13 = test: Antiproliferative activity against human MOLM-13 cells; format: functional, cell-based
Hs-578T = test: Antiproliferative activity against human Hs-578T cells; format: functional, cell-based
LNCaP C4-2B = test: Antiproliferative activity against human LNCaP C4-2B cells; format: functional, cell-based
MV4-11 = test: Antiproliferative activity against human MV4-11 cells; format: functional, cell-based
LNCaP [9] = test: Antiproliferative activity against human LNCaP cells; format: functional, cell-based
[10] = molecular target: T3, Bromodomain-containing protein 4; test: Inhibition of BRD4 (unknown origin)
[11] = Upregulation of p53 protein expression in human A549 cells at 3.33 uM relative to control; format: functional
A549 [12] = test: Antiproliferative activity against human A549 cells; format: functional, cell-based
[13] = Downregulation of MDM2 protein expression in human A549 cells at 10 uM relative to control; format: functional
[14] = Downregulation of MDM2 protein expression in human A549 cells at 1.11 uM relative to control; format: functional
[15] = Upregulation of p53 protein expression in human A549 cells at 10 uM relative to control; format: functional
[16] = Upregulation of p53 protein expression in human A549 cells at 1.11 uM relative to control; format: functional
[17] = Downregulation of MDM2 protein expression in human A549 cells at 3.33 uM relative to control; format: functional
A549 [18] = test: Antiproliferative activity against human A549 cells assessed as reduction in cell viability by MTT assay; format: functional, cell-based
NCI-H1975 = test: Antiproliferative activity against human NCI-H1975 cells assessed as reduction in cell viability by MTT assay; format: functional, cell-based
[19] = Intrinsic clearance in mouse liver microsomes; format: ADME, Microsome; conditions: read-out: CLH
Pfeiffer [20] = test: Induction of cell cycle arrest in human Pfeiffer cells assessed as G0/G1 phase arrest at 100 nM incubated for 24 hrs by PI staining based flow cytometry analysis; format: functional
MDA-MB-468 = test: Antiproliferative activity against human MDA-MB-468 cells
[21] = Half life in mouse; format: ADME, organism-based; conditions: in vivo
MDA-MB-231 [22] = test: Antiproliferative activity against human MDA-MB-231 cells
Pfeiffer [23] = test: Antiproliferative activity against human Pfeiffer cells
MDA-MB-231 [24] = test: Induction of cell cycle arrest in human MDA-MB-231 cells assessed as G0/G1 phase arrest at 12.3 to 1000 nM incubated for 24 hrs by PI staining based flow cytometry analysis; format: functional; conditions: dose 12.3-1000 nM

Chain of Platelet-derived growth factor receptor beta (Homo sapiens) (P09619 whole entry): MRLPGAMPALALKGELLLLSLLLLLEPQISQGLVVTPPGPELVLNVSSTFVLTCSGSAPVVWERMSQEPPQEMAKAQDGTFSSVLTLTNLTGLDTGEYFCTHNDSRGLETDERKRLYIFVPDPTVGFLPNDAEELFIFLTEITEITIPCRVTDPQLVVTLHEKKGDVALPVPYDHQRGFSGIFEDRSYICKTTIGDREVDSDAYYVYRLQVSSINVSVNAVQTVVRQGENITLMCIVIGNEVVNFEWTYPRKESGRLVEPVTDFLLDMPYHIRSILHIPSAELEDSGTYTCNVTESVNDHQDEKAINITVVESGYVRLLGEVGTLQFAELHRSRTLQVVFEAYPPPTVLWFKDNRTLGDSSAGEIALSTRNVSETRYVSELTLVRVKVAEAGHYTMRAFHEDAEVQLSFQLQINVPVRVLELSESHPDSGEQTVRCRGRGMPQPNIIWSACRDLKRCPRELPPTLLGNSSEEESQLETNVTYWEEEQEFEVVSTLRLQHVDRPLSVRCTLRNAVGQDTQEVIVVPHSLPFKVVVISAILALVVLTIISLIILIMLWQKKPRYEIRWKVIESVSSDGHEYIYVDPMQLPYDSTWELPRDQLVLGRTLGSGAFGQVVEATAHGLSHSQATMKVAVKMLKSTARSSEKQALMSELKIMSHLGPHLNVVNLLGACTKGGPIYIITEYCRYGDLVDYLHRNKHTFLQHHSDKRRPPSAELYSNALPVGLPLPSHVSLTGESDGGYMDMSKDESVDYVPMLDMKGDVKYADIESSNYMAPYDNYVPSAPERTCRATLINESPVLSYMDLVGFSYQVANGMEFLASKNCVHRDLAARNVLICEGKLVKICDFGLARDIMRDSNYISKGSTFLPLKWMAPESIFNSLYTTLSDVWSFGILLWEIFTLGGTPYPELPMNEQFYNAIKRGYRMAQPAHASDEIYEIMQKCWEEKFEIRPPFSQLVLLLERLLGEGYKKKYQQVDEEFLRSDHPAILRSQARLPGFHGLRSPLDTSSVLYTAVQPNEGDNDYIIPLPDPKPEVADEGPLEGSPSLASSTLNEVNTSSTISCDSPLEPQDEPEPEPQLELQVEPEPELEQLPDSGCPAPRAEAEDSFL

Structure (SMILES): CC1(C)C(=O)N(c2ccc(C#N)c(C(F)(F)F)c2)C(=S)N1CCCCCCCCC(=O)N1CCN(CCCCCCCCCCCCC(=O)NC23CC4CC(CC(C4)C2)C3)CC1
- pIC50 (LNCaP [6]): 5.32
- Emax [7]: 57%

Structure (SMILES): COc1ccc(Br)cc1S(=O)(=O)Nc1cc2c(C)noc2cc1OCCOCCOCCOCCOCCOCCOc1cc2onc(C)c2cc1NS(=O)(=O)c1cc(Br)ccc1OC
- pIC50 (CWR22R): 6.05
- pKd [8]: 6.13
- pIC50 (MOLM-13): 6.35
- pIC50 (Hs-578T): 5.87
- pIC50 (LNCaP C4-2B): 6.03
- pIC50 (MV4-11): 6.35
- pIC50 (LNCaP [9]): 6.28

Structure (SMILES): CCS(=O)(=O)Nc1ccc(Oc2ccc(F)cc2F)c(-c2cn(C)c(=O)c3[nH]ccc23)c1 [MIVEBRESIB]
- pIC50 [10]: 8.59

Structure (SMILES): COC(C)(C)CCC[C@@](C)(O)[C@H]1CC[C@]2(C)[C@@H]1[C@H](O)C[C@@H]1[C@@]3(C)CC[C@H](OCC(=O)N4CCN(CC5CCN(c6ccc7c(c6)CN(C6CCC(=O)NC6=O)C7=O)CC5)CC4)C(C)(C)[C@@H]3CC[C@]12C (stereo partly specified)
- Activity [11]: 138.01%
- pIC50 (A549 [12]): 5.67
- Activity [13]: 65.39%
- Activity [14]: 33.78%
- Activity [15]: 147.15%
- Activity [16]: 133.45%
- Activity [17]: 49.53%

More lines, main results first:

- inhibition [1]: > 70%
Structure (SMILES): O=C1CCC(N2Cc3c(NC(=O)CCCNC(=O)c4cc(Oc5ccc(NC(=O)Nc6ccc(Cl)c(C(F)(F)F)c6)cc5)ccn4)cccc3C2=O)C(=O)N1 (stereo unspecified)

- DC50 [2]: 0.0046 µM
- DC50 [3]: 0.358 µM
- Emax [4]: 92.3%
- Emax [5]: 81.3%
Structure (SMILES): COc1cc(N2CCN(C(=O)CNc3cccc4c3C(=O)N(C3CCC(=O)NC3=O)C4=O)CC2)ccc1Nc1ncc(Cl)c(Nc2ccccc2S(=O)(=O)C(C)C)n1 (stereo unspecified)

- inhibition [1]: > 70%
Structure (SMILES): Cc1ncsc1-c1ccc(CNC(=O)[C@@H]2C[C@@H](O)CN2C(=O)[C@@H](NCCCCNC(=O)CNC(=O)c2cc(Oc3ccc(NC(=O)Nc4ccc(Cl)c(C(F)(F)F)c4)cc3)ccn2)C(C)(C)C)cc1

- pIC50 (MCF7): 7.54
- pIC50 (T47D): 7.38
Structure (SMILES): Nc1nc(NC2CCC(C#Cc3ccc(C(=O)Nc4ccc5c(c4)CN(C4CCC(=O)NC4=O)C5=O)cc3)CC2)sc1C(=O)c1ccccc1[N+](=O)[O-] (stereo unspecified)

- pIC50 (A549 [18]): 4.17
- pIC50 (NCI-H1975): 5.68
Structure (SMILES): COc1cc2ncnc(Nc3ccc(Cl)c(Cl)c3F)c2cc1Oc1ccc(NC(=O)CCCCCCC(=O)Nc2cccc3c2CN(C2CCC(=O)NC2=O)C3=O)cc1 (stereo unspecified)

- CLint scaled [19]: 8.99 L/h/kg
- pIC50 (MDA-MB-468): 5.85
- pIC50 (MCF7): 5.38
- half-life [21]: 1.07 h
- pIC50 (T47D): 5.16
- pIC50 (MDA-MB-231 [22]): 5.35
Structure (SMILES): COc1cc(C)[nH]c(=O)c1CNC(=O)c1cccc2c1c(C)cn2[C@H](C)C1CCN(CCCCCCCCCC(=O)N[C@H](C(=O)N2C[C@H](O)C[C@H]2C(=O)NCc2ccc(-c3scnc3C)cc2)C(C)(C)C)CC1
- Activity (Pfeiffer [20]): 11.74%
- pIC50 (Pfeiffer [23]): 5.69
- Activity (MDA-MB-231 [24]): 68.38%
